Values joined by “and” are separate entries in the source; they are usually repeats but may differ in a detail not shown here. Identical values can stand only once. One block for each compound: values may come before it. Active and inactive are the calls of the source.
Experiments:
[1] = cytotoxicity toward NIH3T3 fibroblasts, dose response, counter-screen, cell-based, ATP luminescence, mouse fibroblasts (AID 2010); format: functional;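 note: cells exposed to compound for about 90 hours before reading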
[2] = inhibitors of intracellular T. cruzi replication, confirmation, NIH3T3 host cells, beta-gal luminescence (AID 2044); format: functional, cell-based;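 note: intracellular parasites grown in NIH/3T3 mouse fibroblasts as host cells; luminescent beta-galactosidase reporter signal from transgenic T. cruzi replicating inside host cells; inhibitors lower the luminescence signal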
Cytochrome P450 2C19 = Cytochrome P450 2C19 (Homo sapiens, UniProt P33261); test: Cytochrome panel assay with activity outcomes. Panel member name: p450-cyp2c19 Compounds with AC50 equal or less than 10 uM are considered active; format: functional
Cytochrome P450 2C9 = Cytochrome P450 2C9 (Homo sapiens, UniProt P11712)
Cytochrome P450 1A2 = biological target: T1, Cytochrome P450 1A2 (Homo sapiens, UniProt P05177);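 note: PubChem cytochrome P450 panel assay, CYP1A2 panel member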
T1 sequence (P05177 whole entry): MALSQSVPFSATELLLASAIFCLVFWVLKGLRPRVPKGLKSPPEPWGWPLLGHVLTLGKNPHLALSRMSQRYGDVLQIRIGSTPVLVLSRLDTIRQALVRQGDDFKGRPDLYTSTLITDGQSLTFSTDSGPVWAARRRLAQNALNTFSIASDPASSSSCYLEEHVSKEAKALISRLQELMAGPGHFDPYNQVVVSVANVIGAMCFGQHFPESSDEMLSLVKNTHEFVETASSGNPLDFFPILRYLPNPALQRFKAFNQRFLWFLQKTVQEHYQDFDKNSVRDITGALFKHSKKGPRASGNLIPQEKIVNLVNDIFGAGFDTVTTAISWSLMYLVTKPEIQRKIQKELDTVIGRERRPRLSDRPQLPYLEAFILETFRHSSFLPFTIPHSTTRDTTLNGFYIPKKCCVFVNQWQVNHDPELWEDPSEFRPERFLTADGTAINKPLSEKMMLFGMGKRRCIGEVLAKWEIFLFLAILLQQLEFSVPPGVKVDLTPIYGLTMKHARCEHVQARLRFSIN

Cytochrome P450 2D6 = Cytochrome P450 2D6 (Homo sapiens, UniProt P10635);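 note: CYP2D6 member of a cytochrome P450 panel assay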
Sequence of Cytochrome P450 2D6 (P10635 whole entry): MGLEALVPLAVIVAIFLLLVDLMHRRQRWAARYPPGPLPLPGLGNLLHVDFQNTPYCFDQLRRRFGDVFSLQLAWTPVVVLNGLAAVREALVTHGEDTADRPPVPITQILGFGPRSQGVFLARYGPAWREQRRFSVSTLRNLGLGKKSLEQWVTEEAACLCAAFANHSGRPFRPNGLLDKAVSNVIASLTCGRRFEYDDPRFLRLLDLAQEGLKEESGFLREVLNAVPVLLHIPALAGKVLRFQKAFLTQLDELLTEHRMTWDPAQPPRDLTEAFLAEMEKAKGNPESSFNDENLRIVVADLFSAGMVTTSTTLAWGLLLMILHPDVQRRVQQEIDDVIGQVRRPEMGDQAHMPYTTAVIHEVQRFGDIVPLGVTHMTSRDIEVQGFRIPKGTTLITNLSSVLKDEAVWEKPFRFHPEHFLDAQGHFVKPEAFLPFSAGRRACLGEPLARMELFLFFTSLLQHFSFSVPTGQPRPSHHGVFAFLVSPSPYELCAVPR

Sequence of Cytochrome P450 2C19 (P33261 whole entry): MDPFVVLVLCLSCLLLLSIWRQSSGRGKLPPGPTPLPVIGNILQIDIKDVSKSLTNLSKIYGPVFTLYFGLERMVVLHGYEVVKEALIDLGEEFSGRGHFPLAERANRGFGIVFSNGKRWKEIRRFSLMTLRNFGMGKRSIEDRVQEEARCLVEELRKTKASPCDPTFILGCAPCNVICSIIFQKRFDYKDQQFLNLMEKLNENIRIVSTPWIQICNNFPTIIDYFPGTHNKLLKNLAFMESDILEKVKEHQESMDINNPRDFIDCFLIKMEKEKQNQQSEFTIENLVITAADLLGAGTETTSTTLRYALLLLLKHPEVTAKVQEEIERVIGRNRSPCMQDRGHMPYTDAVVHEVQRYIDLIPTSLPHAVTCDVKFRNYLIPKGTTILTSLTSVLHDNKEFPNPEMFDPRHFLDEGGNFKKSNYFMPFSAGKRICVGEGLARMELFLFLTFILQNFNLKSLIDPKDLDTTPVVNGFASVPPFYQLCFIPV
Sequence of Cytochrome P450 2C9 (P11712 whole entry): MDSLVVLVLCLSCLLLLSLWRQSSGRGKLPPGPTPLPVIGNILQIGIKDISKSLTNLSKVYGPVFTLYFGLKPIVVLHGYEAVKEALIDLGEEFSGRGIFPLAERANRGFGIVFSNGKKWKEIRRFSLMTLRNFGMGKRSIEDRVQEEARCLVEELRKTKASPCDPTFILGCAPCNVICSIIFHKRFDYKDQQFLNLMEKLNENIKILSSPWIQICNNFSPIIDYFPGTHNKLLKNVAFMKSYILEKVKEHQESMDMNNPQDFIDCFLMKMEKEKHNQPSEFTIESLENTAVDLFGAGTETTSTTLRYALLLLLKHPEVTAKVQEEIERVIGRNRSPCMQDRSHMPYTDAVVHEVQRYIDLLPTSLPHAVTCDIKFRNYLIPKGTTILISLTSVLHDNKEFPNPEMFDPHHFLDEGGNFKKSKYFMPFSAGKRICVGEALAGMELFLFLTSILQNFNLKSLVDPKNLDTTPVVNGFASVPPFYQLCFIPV

SMILES: O=C(CN1CCC(c2nc3ccccc3s2)CC1)NCc1ccccc1
- EC50 [1]: > 60 µM (not active)
- EC50 [2]: 0.237 µM (active)

SMILES: CCOc1cc(NC(=O)CC(C)C)c(OCC)cc1N=C(S)Nc1cccc(C)c1
- AC50 (Cytochrome P450 2C19; read-out: AC50): 2.51 µM (inconclusive)

SMILES: CC(C)C(=O)NCCn1ccc2ccccc21
- AC50 (Cytochrome P450 1A2): 20 µM (inconclusive)

SMILES: Cc1cc(C)n(-c2nc(NC(C)C)nc(NC(C)C)n2)n1
- AC50 (Cytochrome P450 2C19; read-out: AC50): 35.5 µM (inconclusive)

SMILES: CCCCNC(=O)C1CC(=O)N(CCC(C)C)C1 (configuration not stated)
- AC50 (Cytochrome P450 2C19; read-out: AC50): 25.1 µM (inconclusive)

SMILES: COc1ccc(OC)c2sc(N3CCN(C(=O)c4ccc([N+](=O)[O-])s4)CC3)nc12
- EC50 [1]: > 60 µM (not active)
- EC50 [2]: 1.8 µM (active)

SMILES: CN1CCN(c2ncc3ncc(=O)n(CCC#N)c3n2)CC1
- AC50 (Cytochrome P450 2C19): inconclusive
- AC50 (Cytochrome P450 1A2): 31.6 µM (inconclusive)

SMILES: CC(C)c1cc(C(C)C)c(S(=O)(=O)N2c3ccccc3[C@@]3(Br)C[C@H]4C(=O)N[C@@H](Cc5ccccc5)C(=O)N4[C@@H]23)c(C(C)C)c1
- EC50 [1]: > 60 µM (not active)
- EC50 [2]: 2.08 µM (active)

SMILES: CCOC(=O)c1cc(C#N)c(N2CCN(C)CC2)nc1-c1ccccc1
- EC50 [1]: > 60 µM (not active)
- EC50 [2]: 1.3 µM (active)

SMILES: Cc1nc2cnc(N3CCN(C)CC3)nc2n(CCC#N)c1=O
- AC50 (Cytochrome P450 1A2): 12.6 µM (inconclusive)

SMILES: CCn1ccc(C(=O)Oc2ccc(Cl)cc2)n1
- AC50 (Cytochrome P450 2C9): 8.91 µM (inconclusive)
- AC50 (Cytochrome P450 2C19; read-out: AC50): 11.2 µM (inconclusive)
- AC50 (Cytochrome P450 2D6): 22.4 µM (inconclusive)

SMILES: COC(=O)CNC(=O)CN1C(=O)N(c2ccc(Cl)cc2)C(N(O)C(=O)Nc2ccc(Cl)cc2)C1(C)C (configuration not stated)
- AC50 (Cytochrome P450 1A2): 22.4 µM (inconclusive)
- AC50 (Cytochrome P450 2D6): 15.8 µM (inconclusive)

SMILES: Cc1oc(-c2ccccc2Cl)nc1CN1CCCCC1c1cccnc1 (configuration not stated)
- EC50 [1]: > 60 µM (inconclusive)
- EC50 [2]: 1.2 µM (active)

SMILES: O=C(N1CCOCC1)N1CCN(c2ccccc2)CC1
- AC50 (Cytochrome P450 2C9): 4.47 µM (inconclusive)

SMILES: COc1cc(C(=O)Nc2nc(-c3ccc(F)cc3)cs2)ccc1OCC(=O)N1CCOCC1
- EC50 [1]: > 60 µM (not active)
- EC50 [2]: 1.36 µM (active)

SMILES: CN(C)c1ccc(/C=C2/C(=O)N(c3ccc([N+](=O)[O-])cc3)N=C2N2CCOCC2)cc1
- AC50 (Cytochrome P450 2C19; read-out: AC50): 0.0224 µM (inconclusive)

SMILES: CC(CC(=O)N1CCN(c2ccc(C(F)(F)F)cn2)CC1)n1ccnc1 (configuration not stated)
- EC50 [1]: > 60 µM (not active)
- EC50 [2]: 1.51 µM (active)

SMILES: COc1cc(CCN2C(=O)c3cccc4cccc(c34)C2=O)c(S(=O)(=O)N2CCC(C)CC2)cc1OC
- EC50 [1]: > 60 µM (not active)
- EC50 [2]: 1.51 µM (active)

SMILES: CC(=O)NCCC(=O)Nc1nc(-c2ccc3ccccc3c2)cs1
- EC50 [1]: > 60 µM (not active)
- EC50 [2]: 2 µM (active)

SMILES: COC(=O)[C@@]1(Cc2ccc(F)cc2)[C@H]2c3cc(C(=O)N(C)C)n(CCO)c3C[C@H]2CN1C(=O)c1ccccc1
- AC50 (Cytochrome P450 2C19; read-out: AC50): 25.1 µM (inconclusive)
- AC50 (Cytochrome P450 2D6): 25.1 µM (inconclusive)

SMILES: CCOC(=O)N1CCN(S(=O)(=O)c2ccc3ncc(C(=O)O)c(O)c3c2)CC1
- AC50 (Cytochrome P450 2C9): 15.8 µM (inconclusive)

SMILES: COc1ccc(OC)c(CNc2ccc3c(c2)CCC3)c1
- EC50 [1]: > 60 µM (not active)
- EC50 [2]: 2.08 µM (active)

SMILES: COC(=O)[C@@]1(Cc2ccc(F)cc2)[C@H]2c3cc(C(=O)N4CCCC4)n(CCN4CNCC4=O)c3C[C@H]2CN1C(=O)c1ccccc1
- AC50 (Cytochrome P450 2C19; read-out: AC50): 39.8 µM (inconclusive)
- AC50 (Cytochrome P450 1A2): 15.8 µM (inconclusive)
- AC50 (Cytochrome P450 2D6): 39.8 µM (inconclusive)

SMILES: CCNc1ncc2nc(C)c(=O)n(C[C@H]3CCCO3)c2n1
- AC50 (Cytochrome P450 2D6): 39.8 µM (inconclusive)

SMILES: Cc1cccc(NC(=O)CSc2nc3ccccc3c3nc(CCc4c(C)n[nH]c4C)nn23)c1
- AC50 (Cytochrome P450 2D6): 8.91 µM (inconclusive)

SMILES: O=C(NCCOC12CC3CC(CC(C3)C1)C2)c1cccc(Br)c1
- AC50 (Cytochrome P450 1A2): 17.8 µM (inconclusive)

SMILES: Cc1ccc(C)c(C(=O)CN2C(=O)c3ccccc3S2(=O)=O)c1
- AC50 (Cytochrome P450 2D6): 0.631 µM (inconclusive)

SMILES: Cc1ccc(Cl)cc1N=C(S)N(Cc1ccccc1)Cc1cccnc1
- EC50 [1]: > 60 µM (not active)
- EC50 [2]: 0.785 µM (active)

SMILES: CCOC(=O)CNc1nc(C(C)(C)C)nc2c1nnn2Cc1ccccc1Cl
- EC50 [1]: > 60 µM (not active)
- EC50 [2]: 3.11 µM (active)

SMILES: CN(C)CCCNc1c2c(nc3ccc(Cl)cc13)CCCC2
- AC50 (Cytochrome P450 1A2): 3.16 µM (inconclusive)

SMILES: CCCCCCCNC(=O)c1cc(-c2ccncc2)nc2ccccc12
- EC50 [1]: > 60 µM (not active)
- EC50 [2]: 2.98 µM (active)

SMILES: CCn1c(=O)c2c(nc3n2CCS3)n(C)c1=O
- AC50 (Cytochrome P450 2C9): 0.00891 µM (inconclusive)
- AC50 (Cytochrome P450 2C19; read-out: AC50): 10 µM (inconclusive)

SMILES: Cc1cn2c(-c3ccncc3)nnc2s1
- AC50 (Cytochrome P450 1A2): 10 µM (inconclusive)

SMILES: COc1cccc(NC(=O)CSc2nnc(CN3CCOCC3)n2C)c1
- AC50 (Cytochrome P450 2C19; read-out: AC50): 28.2 µM (inconclusive)

SMILES: COc1ccc2c(c1)c(C(=O)N/N=C/c1cccc(Br)c1)c(C)n2C
- EC50 [1]: > 60 µM (not active)
- EC50 [2]: 0.324 µM (active)

SMILES: COc1ccc2c(c1)s/c(=N/C(=O)CS(=O)(=O)c1ccc(F)cc1)n2C
- EC50 [1]: > 30 µM (not active)
- EC50 [2]: 0.328 µM (active)

SMILES: O=C(O)c1ccccc1Nc1ccccc1 [FENAMIC ACID]
- AC50 (Cytochrome P450 2C9): 15.8 µM (inconclusive)
- AC50 (Cytochrome P450 1A2): 15.8 µM (inconclusive)

SMILES: COc1ccc(Cc2nccc3cc(OC)c(OC)cc23)cc1OC [PAPAVERINE]
- AC50 (Cytochrome P450 2C19; read-out: AC50): 10 µM (inconclusive) and 3.98 µM (inconclusive)
- AC50 (Cytochrome P450 1A2): 10 µM (inconclusive) and 25.1 µM (inconclusive)
- AC50 (Cytochrome P450 2D6): 10 µM (inconclusive) and 25.1 µM (inconclusive)

Continued, values first:

- AC50 (Cytochrome P450 2C9): 1 µM (inconclusive)
- AC50 (Cytochrome P450 2C19; read-out: AC50): 1.58 µM (inconclusive)
SMILES: Cc1ccc(C(=O)Nc2cccc(-c3cnc4ccccc4n3)c2)cc1

- AC50 (Cytochrome P450 2C9): 0.794 µM (inconclusive)
SMILES: c1cncc(CNc2ncncc2-c2ccc3c(c2)OCO3)c1

- AC50 (Cytochrome P450 2D6): 8.91 µM (inconclusive)
SMILES: Cc1cccc(-c2nsc(SCC(=O)Nc3nccs3)n2)c1

- AC50 (Cytochrome P450 2C9): 0.631 µM (inconclusive)
- AC50 (Cytochrome P450 2C19; read-out: AC50): 3.16 µM (inconclusive)
SMILES: Cc1cccc(CNc2nc(-c3c(C)noc3C)nc3ccccc23)c1

- AC50 (Cytochrome P450 2C9): 1.78 µM (inconclusive)
- AC50 (Cytochrome P450 2C19; read-out: AC50): 7.94 µM (inconclusive)
- AC50 (Cytochrome P450 2D6): 0.0355 µM (inconclusive)
SMILES: Cc1ccc(-c2nnc(-c3ccccc3S(=O)(=O)Cc3ccc(Cl)cc3)o2)cc1

- AC50 (Cytochrome P450 2C19; read-out: AC50): 39.8 µM (inconclusive)
SMILES: O=c1[nH]n(-c2cccc(Cl)c2)c2ncccc12

- AC50 (Cytochrome P450 1A2): 15.8 µM (inconclusive)
SMILES: Cc1cnc(CNc2ncnc3ccc(-c4ccc(C(=O)N(C)C)cc4)cc23)cn1

- AC50 (Cytochrome P450 2C19; read-out: AC50): 5.01 µM (inconclusive)
- AC50 (Cytochrome P450 1A2): 3.16 µM (inconclusive)
- AC50 (Cytochrome P450 2D6): 3.98 µM (inconclusive)
SMILES: NC(=O)[C@@H]1CCCN1Cc1ccc2c(c1)OCO2

- AC50 (Cytochrome P450 1A2): 25.1 µM (inconclusive)
SMILES: O=C(c1cnccn1)N1CCC2(CCN(Cc3ccncc3)CC2)CC1

- AC50 (Cytochrome P450 2D6): 12.6 µM (inconclusive)
SMILES: Cc1nc(NC(=O)c2ccccc2)sc1-c1csc(Nc2ccc(Cl)cc2Cl)n1

- AC50 (Cytochrome P450 2D6): 25.1 µM (inconclusive)
SMILES: CCNc1ncc2nc(-c3ccc(Cl)cc3)c(=O)n(C)c2n1

- AC50 (Cytochrome P450 2C9): 3.16 µM (inconclusive)
SMILES: O=c1cnc2cnc(Nc3ccccc3)nc2n1Cc1cccs1

- AC50 (Cytochrome P450 2C19; read-out: AC50): 8.91 µM (inconclusive)
- AC50 (Cytochrome P450 1A2): 10 µM (inconclusive)
SMILES: CCC(C)(C(=O)NC1CCCC1)N(C(=O)c1ccccn1)c1ccccc1 (configuration not stated)

- AC50 (Cytochrome P450 2D6): 1.12 µM (inconclusive)
SMILES: c1ccc2c(c1)ncn2-c1ccc(-c2ccnc(-c3ccncc3)n2)cc1

- AC50 (Cytochrome P450 2D6): 17.8 µM (inconclusive)
SMILES: O=S(=O)(c1ccc(F)cc1)n1ccc(-c2cnc(-c3ccccc3)s2)n1

- AC50 (Cytochrome P450 1A2): 0.794 µM (inconclusive)
SMILES: C[N+](C)([O-])CCC=C1c2ccccc2CCc2ccccc21 [AMITRIPTYLINOXIDE]
